Laboratory results reported in patent US12281225B2, “Process for preparing stable polymers containing vinylimidazole” (BASF SE, priority 2018, dated 2025).

Tests used:
[1] = Analysis of active substance: preservative concentration before and after storage in VI-containing polymer solution; assay type: physicochemical; conditions: for active-substance concentration, 0 d, RT: before storage; for active-substance concentration, 14 d, 40° C.: storage 14 d at 40° C.; for active-substance concentration, 28 d, 40° C.: storage 28 d at 40° C.; for active-substance concentration, 60 d 40° C.: storage 60 d at 40° C.
Experimental: Stability of Preservatives in VI-Containing Polymers:
The following stabilizers for VI-containing polymers (here: aqueous solution of a copolymer of vinylpyrrolidone and vinylimidazole) were tested.
MIT, BIT, CMIT, OIT, DCOIT and iodopropynyl butyl carbamate were determined by RP chromatography with UV detection after dilution of the sample to be tested. An RP18 column was used for this purpose, with an eluent composed of an acid-methanol mixture under isocratic conditions.

[2] = Iodine color number according to DIN 6162:2014-09; assay type: physicochemical
[3] = Physical stability; visual assessment (color, turbidity, phase separation); assay type: physicochemical; parameters: key: ++: no discernible change with respect to color, turbidity or phase separation; +: marginal change in color number, somewhat increased Tyndall effect but no turbidity; 0: easily discernible increase in color number and moderate turbidity−no phase separation; −: turbidity and change in color number readily discernible by visual assessment; −−: strong color change with strong turbidity and incipient phase separation
Method in brief: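 Samples were inspected visually for color, turbidity and phase separation and scored on a five-step scale. Scores run from ++ (no discernible change) to −− (strong color change, strong turbidity, incipient phase separation).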

[4] = system: Bacteria: Escherichia coli, Staphylococcus aureus, Pseudomonas aeruginosa, Pseudomonas putida, Burkholderia cepacia, Alcaligenes faecalis; assay: Preservation test with periodic inoculation, bacteria assessment; assay type: cell-based; conditions: sample stored 60 d at 40° C.
Experimental: Microbiological results at the start (freshly formulated, i.e. 4-week test series is started immediately) and after 60 days of storage at 40° C. (i.e. the 4-week microbial testing is started with the sample stored at 40° C. for 60 days)
The test described below is carried out in order to ascertain the preserving effect of chemical preservatives in aqueous products and systems, the principle of the described method reflecting the efficacy of chemical preservatives with respect to pot-maintenance of aqueous products/systems under conditions corresponding to the use of laundry products/consumer products by the consumer. For this purpose, the preservatives to be tested are added in those concentrations which correspond to from the literature or to the manufacturer data from the suppliers (e.g. Thor, Speyer). In said test, our orientation was toward the upper range, which, with the exception of VI-containing polymers, had always led to excellent results in the case of aqueous polymers for laundry.
A constant microorganism load is achieved by periodic inoculation of the test batches. Before the swabs of each batch made respectively immediately in parallel with the inoculation. The assessment is made on the basis of the microbial growth of the streaks.
When carrying out said tests, 25 g of the polymer to be tested are weighed in each case into a vessel with a screw cap. The preservatives to be tested are each added in separate batches according to the specified use concentrations. An unpreserved product sample was used in each case for the growth control. Two days after the addition of the preservative, the samples are infected with 0.5 ml of inoculum (2% w/w). The titer of this inoculant solution is 10^9 organisms per ml. The following microorganisms are the test organisms for the preservation test:
• Escherichia coli • Staphylococcus aureus • Pseudomonas aeruginosa • Pseudomonas putida • Burkholderia cepacia • Alcaligenes faecalis Yeast: • Candida albicans • Candida valida • Rhodotorula rura • Saccharomyces cerevisiae
The test batches are inoculated four times altogether and once a week and are streaked on an agar plate once a week; the first streaking is done immediately before the new inoculation. Microbial growth on the agar surface is assessed after a three-day incubation at 25° C. As a precaution, negative swabs are additionally observed for a further three days and reassessed. The preserving effect is effected in a semiquantitative method via the growth of the individual streaks in accordance with the assessment from − via + to +++. The preservative result is repeatedly demonstrably robust, i.e. +++− defines the microbial growth.
When assessing the results, it is assumed that a preservative can be regarded as good if there are batches under the above-described laboratory conditions for a period of four weeks without microbial invasion of the sample, and that, even after the fourth inoculation, no microbial attacks occur growth can be identified. • −−: no growth • −: slight growth, max. 100 colonies • 0: moderate growth, max. 400 colonies • +: uniform growth with individual colonies still easily identifiable • ++: strong growth; too many colonies to be counted, already some extensive growth

[5] = Polymer P5 (HP56) with stabilizer

SMILES: Cn1sc(Cl)cc1=O [CMIT, 5-chloro-N-methylisothiazolin-3-one]
- active-substance concentration, 0 d, RT ([1]; in Polymer P1): 150 ppm
- active-substance concentration, 14 d, 40° C. ([1]; in Polymer P1): 94 ppm
- active-substance concentration, 28 d, 40° C. ([1]; in Polymer P1): 81 ppm
- active-substance concentration, 60 d 40° C. ([1]; in Polymer P1): 59 ppm
- active-substance concentration, 0 d, RT ([1]; in Polymer P2): 150 ppm
- active-substance concentration, 14 d, 40° C. ([1]; in Polymer P2): 108 ppm
- active-substance concentration, 28 d, 40° C. ([1]; in Polymer P2): 89 ppm
- active-substance concentration, 60 d 40° C. ([1]; in Polymer P2): 66 ppm
- active-substance concentration, 0 d, RT ([1]; in Polymer P3): 150 ppm
- active-substance concentration, 14 d, 40° C. ([1]; in Polymer P3): 117 ppm
- active-substance concentration, 28 d, 40° C. ([1]; in Polymer P3): 93 ppm
- active-substance concentration, 60 d 40° C. ([1]; in Polymer P3): 77 ppm
- active-substance concentration, 0 d, RT ([1]; in Polymer P4): 150 ppm
- active-substance concentration, 14 d, 40° C. ([1]; in Polymer P4): 111 ppm
- active-substance concentration, 28 d, 40° C. ([1]; in Polymer P4): 89 ppm
- active-substance concentration, 60 d 40° C. ([1]; in Polymer P4): 73 ppm
- active-substance concentration, 0 d, RT ([1]; in Polymer P5 (HP56)): 150 ppm
- active-substance concentration, 14 d, 40° C. ([1]; in Polymer P5 (HP56)): 94 ppm
- active-substance concentration, 28 d, 40° C. ([1]; in Polymer P5 (HP56)): 81 ppm
- active-substance concentration, 60 d 40° C. ([1]; in Polymer P5 (HP56)): 59 ppm
- active-substance concentration, 0 d, RT ([1]; in Polymer P6): 150 ppm
- active-substance concentration, 14 d, 40° C. ([1]; in Polymer P6): 91 ppm
- active-substance concentration, 28 d, 40° C. ([1]; in Polymer P6): 76 ppm
- active-substance concentration, 60 d 40° C. ([1]; in Polymer P6): 55 ppm
- active-substance concentration, 0 d, RT ([1]; in Polymer P7): 150 ppm
- active-substance concentration, 14 d, 40° C. ([1]; in Polymer P7): 96 ppm
- active-substance concentration, 28 d, 40° C. ([1]; in Polymer P7): 80 ppm
- active-substance concentration, 60 d 40° C. ([1]; in Polymer P7): 64 ppm
- active-substance concentration, 0 d, RT ([1]; in Polymer P8): 150 ppm
- active-substance concentration, 14 d, 40° C. ([1]; in Polymer P8): 94 ppm
- active-substance concentration, 28 d, 40° C. ([1]; in Polymer P8): 81 ppm
- active-substance concentration, 60 d 40° C. ([1]; in Polymer P8): 59 ppm
- active-substance concentration, 0 d, RT ([1]; in Polymer P9): 150 ppm
- active-substance concentration, 14 d, 40° C. ([1]; in Polymer P9): 82 ppm
- active-substance concentration, 28 d, 40° C. ([1]; in Polymer P9): 70 ppm
- active-substance concentration, 60 d 40° C. ([1]; in Polymer P9): 51 ppm
- Iodine color number, 60 d 40° C. ([2]; Polymer P1 with stabilizer): 6.2
- Iodine color number, start ([2]; Polymer P1 with stabilizer): 2.5
- Iodine color number, 60 d 40° C. ([2]; Polymer P2 with stabilizer): 8.6
- Iodine color number, start ([2]; Polymer P2 with stabilizer): 3.1
- Iodine color number, 60 d 40° C. ([2]; Polymer P3 with stabilizer): 8.5
- Iodine color number, start ([2]; Polymer P3 with stabilizer): 3.2
- Iodine color number, 60 d 40° C. ([2]; Polymer P4 with stabilizer): 8.9
- Iodine color number, start ([2]; Polymer P4 with stabilizer): 3.2
- Iodine color number, 60 d 40° C. [2, 5]: 9.0
- Iodine color number, start [2, 5]: 3.5
- Iodine color number, 60 d 40° C. ([2]; Polymer P6 with stabilizer): 9.1
- Iodine color number, start ([2]; Polymer P6 with stabilizer): 3.5
- Iodine color number, 60 d 40° C. ([2]; Polymer P7 with stabilizer): 9.1
- Iodine color number, start ([2]; Polymer P7 with stabilizer): 3.5
- Iodine color number, 60 d 40° C. ([2]; Polymer P8 with stabilizer): 9.3
- Iodine color number, start ([2]; Polymer P8 with stabilizer): 3.3
- Iodine color number, 60 d 40° C. ([2]; Polymer P9 with stabilizer): 13.9
- Iodine color number, start ([2]; Polymer P9 with stabilizer): 3.9
- Physical stability, 60 d 40° C.* ([3]; Polymer P1 with stabilizer): −−
- Physical stability, 60 d 40° C.* ([3]; Polymer P2 with stabilizer): −−
- Physical stability, 60 d 40° C.* ([3]; Polymer P3 with stabilizer): −
- Physical stability, 60 d 40° C.* ([3]; Polymer P4 with stabilizer): −−
- Physical stability, 60 d 40° C.* [3, 5]: −−
- Physical stability, 60 d 40° C.* ([3]; Polymer P6 with stabilizer): −−
- Physical stability, 60 d 40° C.* ([3]; Polymer P7 with stabilizer): −
- Physical stability, 60 d 40° C.* ([3]; Polymer P8 with stabilizer): −−
- Physical stability, 60 d 40° C.* ([3]; Polymer P9 with stabilizer): −−
- 60 d 40° C., bact. assess., 4th inoculation ([4]; Polymer P1): 0 (moderate growth, max. 400 colonies)
- 60 d 40° C., bact. assess., 4th inoculation ([4]; Polymer P2): +
- 60 d 40° C., bact. assess., 4th inoculation ([4]; Polymer P3): +
- 60 d 40° C., bact. assess., 4th inoculation ([4]; Polymer P4): +
- 60 d 40° C., bact. assess., 4th inoculation ([4]; Polymer P5 (HP56)): +
- 60 d 40° C., bact. assess., 4th inoculation ([4]; Polymer P6): +
- 60 d 40° C., bact. assess., 4th inoculation ([4]; Polymer P7): +
- 60 d 40° C., bact. assess., 4th inoculation ([4]; Polymer P8): 0 (moderate growth, max. 400 colonies)
- 60 d 40° C., bact. assess., 4th inoculation ([4]; Polymer P9): ++
